# “And” between values parts separate entries of the source, which are not always exact repeats. Equal values may be shown once. Inconclusive results and toxic doses are left out.
# Test system: BDF1 mice, P388 leukemia ip, median survival T/C
# Assay: NCI In Vivo Anticancer Drug Screen. Data for tumor model P388 Leukemia (intraperitoneal) in B6D2F1 (BDF1) mice
# Details: endpoint: median survival time, higher = longer survival
# Outline: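 Reported as T/C, where T is the survival measurement in dosed animals and C the same measurement in vehicle controls.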
# [1] = dose: 100.0 mg/kg/injection, schedule: Q01DX009 (ip), vehicle: Klucel (hydroxypropylcellulose) (HPC)
# [2] = dose: 100.0 mg/kg/injection, schedule: Q04DX003 (ip), vehicle: Klucel (hydroxypropylcellulose) (HPC)
# [3] = dose: 200.0 mg/kg/injection, schedule: Q01DX009 (ip), vehicle: Klucel (hydroxypropylcellulose) (HPC)
# [4] = dose: 200.0 mg/kg/injection, schedule: Q04DX003 (ip), vehicle: Klucel (hydroxypropylcellulose) (HPC)
# [5] = dose: 400.0 mg/kg/injection, schedule: Q01DX009 (ip), vehicle: Klucel (hydroxypropylcellulose) (HPC)
# [6] = dose: 400.0 mg/kg/injection, schedule: Q04DX003 (ip), vehicle: Klucel (hydroxypropylcellulose) (HPC)
# [7] = dose: 3.0 mg/kg/injection, schedule: Q01DX009 (ip), vehicle: saline
# [8] = dose: 6.0 mg/kg/injection, schedule: Q01DX009 (ip), vehicle: saline
# [9] = dose: 50.0 mg/kg/injection, schedule: Q01DX009 (ip), vehicle: saline with Tween-80
# [10] = dose: 100.0 mg/kg/injection, schedule: Q01DX009 (ip), vehicle: saline with Tween-80
# [11] = dose: 200.0 mg/kg/injection, schedule: Q01DX009 (ip), vehicle: saline with Tween-80
# [12] = dose: 50.0 mg/kg/injection, schedule: Q01DX009 (ip), vehicle: Klucel (hydroxypropylcellulose) (HPC)
# [13] = dose: 50.0 mg/kg/injection, schedule: Q01DX009 (ip), vehicle: saline
# [14] = dose: 25.0 mg/kg/injection, schedule: Q01DX009 (ip), vehicle: Klucel (hydroxypropylcellulose) (HPC)
smiles,measurement,setting,value
O=C(OC1COC(n2c(=O)oc3ccc(F)cc32)C(OC(=O)c2ccccc2)C1OC(=O)c1ccccc1)c1ccccc1 (stereo not given),T/C,[1],104 % of control
same,T/C,[2],113 % of control
same,T/C,[3],100 % of control
same,T/C,[4],100 % of control
same,T/C,[5],90 % of control
same,T/C,[6],95 % of control
[Ni+2].[SH2+]C([SH2+])=Nc1ccccc1.[SH2+]C([SH2+])=Nc1ccccc1.c1ccc(C[P+](c2ccccc2)(c2ccccc2)c2ccccc2)cc1,T/C,"dose: 0.5 mg/kg/injection, schedule: Q01DX009 (ip), vehicle: saline",115 % of control
same,T/C,"dose: 1.0 mg/kg/injection, schedule: Q01DX009 (ip), vehicle: saline",95 % of control and 120 % of control
same,T/C,"dose: 1.0 mg/kg/injection, schedule: Q04DX003 (ip), vehicle: other",95 % of control
same,T/C,[7],118 % of control and 120 % of control
same,T/C,"dose: 3.0 mg/kg/injection, schedule: Q04DX003 (ip), vehicle: other",108 % of control
same,T/C,"dose: 4.0 mg/kg/injection, schedule: Q01DX009 (ip), vehicle: saline",100 % of control
same,T/C,[8],104 % of control and 105 % of control
same,T/C,"dose: 6.0 mg/kg/injection, schedule: Q04DX003 (ip), vehicle: other",95 % of control
same,T/C,"dose: 9.0 mg/kg/injection, schedule: Q01DX009 (ip), vehicle: saline",110 % of control and 118 % of control
same,T/C,"dose: 10.0 mg/kg/injection, schedule: Q01DX009 (ip), vehicle: Klucel (hydroxypropylcellulose) (HPC)",115 % of control
O=C1Cc2ccc3c(c2O1)C(=O)c1ccccc1C3=O,T/C,"dose: 100.0 mg/kg/injection, schedule: Q04DX002 (ip), vehicle: saline with Tween-80",106 % of control
same,T/C,"dose: 200.0 mg/kg/injection, schedule: Q04DX002 (ip), vehicle: saline with Tween-80",100 % of control
CC[N+](CC)(CC)CC.N#C/C([SH2+])=C(/[SH2+])C#N.N#C/C([SH2+])=C(/[SH2+])C#N.[Fe+2],T/C,"dose: 1.56 mg/kg/injection, schedule: Q01DX009 (ip), vehicle: saline with Tween-80",105 % of control
same,T/C,"dose: 3.12 mg/kg/injection, schedule: Q01DX009 (ip), vehicle: saline with Tween-80",110 % of control
same,T/C,"dose: 3.5 mg/kg/injection, schedule: Q01DX001 (ip), vehicle: saline with Tween-80",100 % of control
same,T/C,"dose: 6.25 mg/kg/injection, schedule: Q01DX009 (ip), vehicle: saline with Tween-80",110 % of control
same,T/C,"dose: 7.0 mg/kg/injection, schedule: Q01DX001 (ip), vehicle: saline with Tween-80",95 % of control
same,T/C,"dose: 9.2 mg/kg/injection, schedule: Q04DX003 (ip), vehicle: saline with Tween-80",100 % of control
same,T/C,"dose: 14.0 mg/kg/injection, schedule: Q04DX003 (ip), vehicle: saline with Tween-80",95 % of control
Cc1onc(-c2ccccc2)c1NC(=O)OCc1ccc(-c2cc(C(F)(F)F)cc(C(F)(F)F)c2)o1,T/C,[9],97 % of control
same,T/C,[10],99 % of control
same,T/C,[11],99 % of control
C/C(N=Nc1ccccc1)=N\Nc1cccc(C(F)(F)F)c1,T/C,[12],100 % of control
same,T/C,[1],105 % of control
same,T/C,[2],104 % of control
same,T/C,[3],100 % of control
same,T/C,[4],104 % of control
same,T/C,[6],108 % of control
FC(F)(F)c1ccc2c(c1)N(CCCN1CCN(CCN3CCCCC3)CC1)c1ccccc1S2,T/C,"dose: 12.5 mg/kg/injection, schedule: Q01DX009 (ip), vehicle: saline",118 % of control
same,T/C,"dose: 25.0 mg/kg/injection, schedule: Q01DX009 (ip), vehicle: saline",115 % of control
same,T/C,[13],86 % of control
CC(CCc1cccc2ccccc12)(C(=O)O)C(=O)O,T/C,"dose: 100.0 mg/kg/injection, schedule: Q04DX003 (ip), vehicle: saline sonified",100 % of control
same,T/C,"dose: 200.0 mg/kg/injection, schedule: Q04DX003 (ip), vehicle: saline sonified",91 % of control
O=C1CSC(C2CCCCC2)N1c1nccs1 (stereo not given),T/C,[9],110 % of control
same,T/C,[10],112 % of control
same,T/C,[11],110 % of control
CC(=O)Nc1ccc(Cl)cc1C(=O)O,T/C,[2],91 % of control
same,T/C,[4],95 % of control
same,T/C,[6],100 % of control
N#CC(C#N)=Cc1cccc([N+](=O)[O-])c1,T/C,[14],90 % of control and 115 % of control
same,T/C,"dose: 50.0 mg/kg/injection, schedule: Q04DX003 (ip), vehicle: Klucel (hydroxypropylcellulose) (HPC)",113 % of control
same,T/C,[1],95 % of control
same,T/C,[2],113 % of control
CN1CCc2ccccc2C1Cc1ccccc1NC(=O)c1sc2ccccc2c1Cl (stereo not given),T/C,[12],86 % of control
same,T/C,[1],91 % of control
same,T/C,[3],89 % of control
CC(=O)O[C@@H]1C[C@@]2(C)[C@@H]3CC=C4[C@@H](C[C@H](O)C(=O)C4(C)C)[C@]3(C)C(=O)C[C@]2(C)[C@H]1[C@@](C)(O)C(=O)/C=C/C(C)(C)OC(C)=O,T/C,"dose: 12.5 mg/kg/injection, schedule: Q01DX010 (ip), vehicle: carboxymethylcellulose (CMC)",109 % of control
same,T/C,"dose: 25.0 mg/kg/injection, schedule: Q01DX010 (ip), vehicle: carboxymethylcellulose (CMC)",122 % of control
same,T/C,"dose: 50.0 mg/kg/injection, schedule: Q01DX010 (ip), vehicle: carboxymethylcellulose (CMC)",95 % of control
O=c1c(O)c(-c2ccccc2)oc2ccccc12,T/C,[1],95 % of control
same,T/C,[2],91 % of control and 103 % of control
same,T/C,[3],100 % of control
same,T/C,[4],91 % of control and 92 % of control
same,T/C,[5],108 % of control
same,T/C,[6],95 % of control and 96 % of control
O=C(O)C1C(C(=O)O)C2(Cl)C(Cl)=C(Cl)C1(Cl)C2(Cl)Cl.[Co] (stereo not given),T/C,[14],100 % of control
same,T/C,[12],100 % of control
Cc1ccc(N=C=O)cc1[N+](=O)[O-],T/C,"dose: 25.0 mg/kg/injection, schedule: Q01DX009 (ip), vehicle: gum acacia",100 % of control
same,T/C,"dose: 50.0 mg/kg/injection, schedule: Q01DX009 (ip), vehicle: gum acacia",100 % of control
same,T/C,"dose: 100.0 mg/kg/injection, schedule: Q04DX003 (ip), vehicle: gum acacia",91 % of control
same,T/C,"dose: 200.0 mg/kg/injection, schedule: Q04DX003 (ip), vehicle: gum acacia",95 % of control
same,T/C,"dose: 400.0 mg/kg/injection, schedule: Q04DX003 (ip), vehicle: gum acacia",95 % of control
COc1cc(NCCCCC(C)N)c2nccc(C)c2c1 (stereo not given),T/C,[13],105 % of control
CC(C)C1(C(=O)O)SCCCS1,T/C,"dose: 50.0 mg/kg/injection, schedule: Q04DX003 (ip), vehicle: alcohol",115 % of control
same,T/C,"dose: 100.0 mg/kg/injection, schedule: Q04DX003 (ip), vehicle: alcohol",115 % of control
same,T/C,"dose: 200.0 mg/kg/injection, schedule: Q04DX003 (ip), vehicle: alcohol",105 % of control
same,T/C,"dose: 400.0 mg/kg/injection, schedule: Q04DX003 (ip), vehicle: alcohol",105 % of control
CN(C)C(=S)NCc1ccccc1,T/C,[9],109 % of control
same,T/C,[10],100 % of control
same,T/C,[11],100 % of control
O=c1[nH]nc(CF)c(=O)[nH]1,T/C,[7],100 % of control and 109 % of control
same,T/C,[8],118 % of control
same,T/C,"dose: 12.0 mg/kg/injection, schedule: Q01DX009 (ip), vehicle: saline",150 % of control
same,T/C,"dose: 24.0 mg/kg/injection, schedule: Q01DX009 (ip), vehicle: saline",154 % of control and 172 % of control
COC(=O)C1(C)CCCC2(C)C1CCC13C=C(C(C)C)C(CC1C(=O)O)CC23 (stereo not given),T/C,[9],95 % of control
same,T/C,[10],91 % of control
same,T/C,[11],95 % of control
N#CC(C#N)=Cc1cccc2ccccc12,T/C,[2],104 % of control
same,T/C,[4],100 % of control
same,T/C,[6],113 % of control
Cc1ccc(N)c(Br)c1,T/C,"dose: 25.0 mg/kg/injection, schedule: Q01DX009 (ip), vehicle: saline with Tween-80",100 % of control
same,T/C,[9],109 % of control
same,T/C,[10],118 % of control
CCCCCCCCCCCC(=O)CCCC,T/C,"dose: 100.0 mg/kg/injection, schedule: Q01DX009 (ip), vehicle: other",110 % of control
same,T/C,"dose: 200.0 mg/kg/injection, schedule: Q01DX009 (ip), vehicle: other",90 % of control
Nc1nc(N)c2nc(/C=C/c3ccc4c(c3)OCO4)cnc2n1,T/C,[9],88 % of control
same,T/C,[10],88 % of control
same,T/C,[11],88 % of control
CC(=O)O[C@H]1CC[C@H]2[C@@H]3CC[C@H]4CC=C(C#N)C[C@]4(C)[C@H]3CC[C@]12C,T/C,"dose: 0.75 mg/kg/injection, schedule: Q01DX009 (ip), vehicle: Klucel (hydroxypropylcellulose) (HPC)",95 % of control
same,T/C,"dose: 1.5 mg/kg/injection, schedule: Q01DX009 (ip), vehicle: Klucel (hydroxypropylcellulose) (HPC)",92 % of control and 100 % of control
same,T/C,"dose: 3.0 mg/kg/injection, schedule: Q01DX009 (ip), vehicle: Klucel (hydroxypropylcellulose) (HPC)",104 % of control
same,T/C,"dose: 6.0 mg/kg/injection, schedule: Q01DX009 (ip), vehicle: Klucel (hydroxypropylcellulose) (HPC)",103 % of control
same,T/C,[14],88 % of control
same,T/C,[12],100 % of control
same,T/C,[1],95 % of control
same,T/C,[2],109 % of control
same,T/C,[3],100 % of control
same,T/C,[4],109 % of control
same,T/C,[6],86 % of control

# Reference: PubChem BioAssay AID328 (DTP/NCI, 2004)
